# Where two headings read alike, the source gives them in different places.
# B1: FucO (Escherichia coli K-12) (protein)
# chain: MANRMILNETAWFGRGAVGALTDEVKRRGYQKALIVTDKTLVQCGVVAKVTDKMDAAGLAWAIYDGVVPNPTITVVKEGLGVFQNSGADYLIAIGGGSPQDTCKAIGIISNNPEFADVRSLEGLSPTNKPSVPILAIPTTAGTAAEVTINYVITDEEKRRKFVCVDPHDIPQVAFIDADMMDGMPPALKAATGVDALTHAIEGYITRGAWALTDALHIKAIEIIAGALRGSVAGDKDAGEEMALGQYVAGMGFSNVGLGLVHGMAHPLGAFYNTPHGVANAILLPHVMRYNADFTGEKYRDIARVMGVKVEGMSLEEARNAAVEAVFALNRDVGIPPHLRDVGVRKEDIPALAQAALDDVCTGGNPREATLEDIVELYHTAW
# notes: The FucO coding region was cloned into pET15b to produce pLOI4322; made in house; host or cells: E. coli BL21(λDE3) carrying pLOI4322
# Legend:
# FucO [1] = molecular target: T1, FucO (Escherichia coli, UniProt P0A9S1); assay: NADH-/NADPH-dependent furan reduction by purified his-tagged FucO; type: biochemical; conditions: for NADPH-dependent reductase activity: purified enzyme, NADPH as cofactor
# T1 construct: The FucO coding region was cloned into pET15b to produce pLOI4322; made in house; host or cells: E. coli BL21(λDE3) carrying pLOI4322
# T1 sequence (P0A9S1 1-382): B1 chain
# Procedure: (§1) Cultures were grown overnight to a cell density of approximately 0.66 mg dew ml^−1 (37° C.) in closed tubes containing 20 ml AM1 (50 g liter^−1 xylose, 0.1 mM IPTG and 12.5 mg liter^−1 ampicillin). Cells were harvested by centrifugation (7,000 g for 5 min, 4° C.), washed twice with 10 ml of cold sodium phosphate buffer (50 mM pH 7.0), resuspended to a cell density of 4.4 mg dew ml^−1, and disrupted in buffer containing 1 mM dithiothreitol using a Fastprep-24 (MP Biomedicals, Solon, Ohio). After clarification at 13,000 g (10 min, 4° C.), protein concentration was determined using a BCA™ Protein Assay Kit (Thermo Scientific, Rockford, Ill.). Furfural-dependent reduction was measured using NADH and NADPH by monitoring the decrease in absorbance at 340 nm (extinction coefficient of NADH of 6,220 M^−1 cm^−1; extinction coefficient of NADPH of […]). Reaction mixtures contained 200 mM phosphate buffer (pH 7.0), 10 mM furfural, and 0.2 mM NADH or NADPH. NADH-dependent and NADPH-dependent reduction of 5-HMF (10 mM) was measured in a similar fashion.
# (§2) For the purification of his-tagged FucO, BL21(pLOI4322) was grown in Luria broth at 37° C. When the culture density reached 0.35 g dew liter^−1, IPTG (0.1 mM) was added to induce overexpression. After incubation for 4 h, cells were harvested (7,000 g for 5 min, 4° C.), washed once with 10 mM Tris-HCl (pH 7.1), and lysed using a French pressure cell. After clarification at 30,000 g (1 h, 4° C.), crude extracts were passed through a 0.22 μm polyvinylidene fluoride (PVDF) filter, and further purified using a 1-ml HiTrap™ nickel column (GE Healthcare, Piscataway, N.J.). Purified enzyme was dialyzed in 100 mM phosphate buffer using a Thermo Slide-A-Lyzer and quantified using the BCA™ Protein Assay Kit (Thermo Scientific, Rockford, Ill.).
# FucO [2] = molecular target: T1, FucO; conditions: native substrate, reference (6); cited from earlier work
# LY180(pTrc99A) = assay: Furfural toxicity in tube cultures, vector control; type: cell-based; conditions: Escherichia coli, 48 h, read-out: minimum inhibitory concentration
# Procedure: (§3) Furfural toxicity was measured in tube cultures (13 mm by 100 mm) containing 4 ml of AM1 medium with 50 g xylose, 12.5 mg liter^−1 ampicillin, furfural, and other supplements as indicated (28, 29). Cultures were inoculated to an initial density of […] (0.1 mM) was included for fucO induction. Cell mass was measured at 550 nm after incubation for 48 h (37° C.).
# YqhD = YqhD (Escherichia coli, UniProt Q46856); conditions: cited from earlier work
# LY180(pLOI4319) = assay: Furfural toxicity in tube cultures, IPTG-induced fucO; type: cell-based; conditions: Escherichia coli; AM1 medium, xylose, 48 h, 37° C., 0.1 mM IPTG-induced fucO; read-out: minimum inhibitory concentration
# Procedure: as §3
# [3] = substrate: O=Cc1ccco1; assay: NADH-/NADPH-dependent furan reduction by purified his-tagged FucO; type: biochemical, Escherichia coli; conditions: other: substrate of purified his-tagged FucO, NADH-specific reduction; 37.0 °C
# Procedure: as §1, §2
# [4] = substrate: O=Cc1ccc(CO)o1; assay: as above; type: biochemical, Escherichia coli; conditions: other: substrate of purified his-tagged FucO, NADH-specific reduction; 37.0 °C
# Procedure: as §1, §2
# Chain of YqhD (Q46856 whole entry): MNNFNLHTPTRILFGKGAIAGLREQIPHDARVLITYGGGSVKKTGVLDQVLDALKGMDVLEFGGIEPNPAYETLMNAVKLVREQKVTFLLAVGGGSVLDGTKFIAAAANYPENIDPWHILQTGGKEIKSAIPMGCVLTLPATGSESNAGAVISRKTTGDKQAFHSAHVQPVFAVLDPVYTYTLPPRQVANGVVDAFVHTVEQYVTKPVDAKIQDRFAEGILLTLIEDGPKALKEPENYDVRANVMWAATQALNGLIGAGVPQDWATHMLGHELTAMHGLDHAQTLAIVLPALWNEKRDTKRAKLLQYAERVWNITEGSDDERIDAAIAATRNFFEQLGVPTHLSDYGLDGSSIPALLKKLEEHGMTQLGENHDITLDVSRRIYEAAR
molecule,measurement,setting,value
"O=Cc1ccc(CO)o1 [5-HMF, 5-hydroxymethylfurfural]",NADPH-dependent reductase activity,FucO [1],No NADPH-dependent furfural or 5-HMF reductase activity
C[C@H](O)C=O [L-lactaldehyde],Km,FucO [2],0.035 mM
same,Vmax,FucO [2],20 μmol min^−1 mg protein^−1
O=Cc1ccco1 [furfural],MIC,LY180(pTrc99A),10 mM
same,Km,"YqhD; reference (29), read-out: Km for furfural",9 mM
same,MIC,LY180(pLOI4319),15 mM
same,Vmax relative to that for L-lactaldehyde,FucO [1]; FucO,10%
same,NADPH-dependent reductase activity,FucO [1],No NADPH-dependent furfural or 5-HMF reductase activity
NC(=O)C1=CN([C@@H]2O[C@H](COP(=O)(O)OP(=O)(O)OC[C@H]3O[C@@H](n4cnc5c(N)ncnc54)[C@H](OP(=O)(O)O)[C@@H]3O)[C@@H](O)[C@H]2O)C=CC1 [NADPH],Km,YqhD; read-out: Km for NADPH,0.008 mM
B1,Km,[3],0.4 ± 0.2 mM
same,Vmax,[3],1.9±0.4 mmol min^−1 mg protein^−1
same,Km,[4],0.7 ± 0.3 mM
same,Vmax,[4],0.30±0.05 mmol min^−1 mg protein^−1
